Results taken from publication PMC9395446, “First-in-human phase 1/1b study to evaluate sitravatinib in patients with advanced solid tumors” (Investigational New Drugs, 2022).

Experiment: Safety in phase 1/1b study (DLTs, TRAEs, TEAEs; CTCAE v4.03)
Format: in vivo, human
Details: 150 mg phase 1b
Description: Safety assessments included evaluation of DLTs, AEs, physical examinations, vital sign measurements, electrocardiogram recordings and laboratory tests.
A DLT was defined as a grade ≥ 4 hematologic abnormality lasting ≥ 4 days; grade 3 thrombocytopenia with clinically significant bleeding; febrile neutropenia; clinically significant grade ≥ 3 non-hematologic AEs not related to underlying malignancy; intolerable grade 2 AEs; or toxicity resulting in an inability to deliver 80% of the dose during the first treatment cycle.
The safety population included all patients who received ≥ 1 dose of sitravatinib. […] The PK evaluable population included all patients with sufficient concentration-time data for PK parameter evaluation. The modified intent-to-treat (mITT) population included all phase 1b patients who received ≥ 1 dose of study drug.

Question: With COCCNCc1ccc(-c2cc3nccc(Oc4ccc(NC(=O)C5(C(=O)Nc6ccc(F)cc6)CC5)cc4F)c3s2)nc1 [sitravatinib, Sitravatinib] as the molecule, how does the “ALT increased TRAE, any grade” value read?
Answer: 18 (18.2) n (%)

Question: What about the “ALT increased TRAE, grade ≥3” value of the same molecule?
Answer: 2 (2.0) n (%)

Question: What about the “AST increased TEAE, any grade” value of the same molecule?
Answer: 26 (26.3) n (%)

Question: What about the “AST increased TEAE, grade ≥3” value of the same molecule?
Answer: 3 (3.0) n (%)

Question: And the “AST increased TRAE, any grade” value?
Answer: 20 (20.2) n (%)

Question: And the “AST increased TRAE, grade ≥3” value?
Answer: 2 (2.0) n (%)

Question: What about the “Abdominal pain TEAE, any grade” value of the same molecule?
Answer: 26 (26.3) n (%)

Question: And the “Abdominal pain TEAE, grade ≥3” value?
Answer: 2 (2.0) n (%)

Question: What about the “Abdominal pain TRAE, any grade” value of the same molecule?
Answer: 14 (14.1) n (%)

Question: And the “Abdominal pain TRAE, grade ≥3” value?
Answer: 0 n (%)

Question: What about the “Anemia TEAE, any grade” value of the same molecule?
Answer: 23 (23.2) n (%)

Question: And the “Anemia TEAE, grade ≥3” value?
Answer: 8 (8.1) n (%)

Question: What about the “Any TEAE” value of the same molecule?
Answer: 99 (100.0) n (%)

Question: What about the “Any TRAE” value of the same molecule?
Answer: 92 (92.9) n (%)

Question: And the “Asthenia TEAE, any grade” value?
Answer: 9 (9.1) n (%)

Question: What about the “Asthenia TEAE, grade ≥3” value of the same molecule?
Answer: 0 n (%)

Question: What about the “Back pain TEAE, any grade” value of the same molecule?
Answer: 18 (18.2) n (%)

Question: And the “Back pain TEAE, grade ≥3” value?
Answer: 3 (3.0) n (%)

Question: And the “Blood and lymphatic system disorders TEAE, any grade” value?
Answer: 27 (27.3) n (%)

Question: What about the “Blood and lymphatic system disorders TEAE, grade ≥3” value of the same molecule?
Answer: 11 (11.1) n (%)

Question: And the “Blood creatinine increased TEAE, any grade” value?
Answer: 15 (15.2) n (%)

Question: And the “Blood creatinine increased TEAE, grade ≥3” value?
Answer: 0 n (%)

Question: And the “Cardiac disorders TEAE, any grade” value?
Answer: 15 (15.2) n (%)

Question: What about the “Cardiac disorders TEAE, grade ≥3” value of the same molecule?
Answer: 6 (6.1) n (%)

Question: And the “Constipation TEAE, any grade” value?
Answer: 40 (40.4) n (%)

Question: And the “Constipation TEAE, grade ≥3” value?
Answer: 0 n (%)

Question: What about the “Constipation TRAE, any grade” value of the same molecule?
Answer: 9 (9.1) n (%)

Question: And the “Constipation TRAE, grade ≥3” value?
Answer: 0 n (%)

Question: And the “Cough TEAE, any grade” value?
Answer: 15 (15.2) n (%)

Question: And the “Cough TEAE, grade ≥3” value?
Answer: 0 n (%)

Question: And the “Decreased appetite TEAE, any grade” value?
Answer: 38 (38.4) n (%)

Question: What about the “Decreased appetite TEAE, grade ≥3” value of the same molecule?
Answer: 1 (1.0) n (%)

Question: What about the “Decreased appetite TRAE, any grade” value of the same molecule?
Answer: 27 (27.3) n (%)

Question: And the “Decreased appetite TRAE, grade ≥3” value?
Answer: 1 (1.0) n (%)

Question: And the “Dehydration TEAE, any grade” value?
Answer: 23 (23.2) n (%)

Question: What about the “Dehydration TEAE, grade ≥3” value of the same molecule?
Answer: 4 (4.0) n (%)

Question: And the “Diarrhea TEAE, any grade” value?
Answer: 67 (67.7) n (%)

Question: And the “Diarrhea TEAE, grade ≥3” value?
Answer: 18 (18.2) n (%)

Question: And the “Diarrhea TRAE, any grade” value?
Answer: 59 (59.6) n (%)

Question: And the “Diarrhea TRAE, grade ≥3” value?
Answer: 14 (14.1) n (%)

Question: And the “Dizziness TEAE, any grade” value?
Answer: 19 (19.2) n (%)

Question: And the “Dizziness TEAE, grade ≥3” value?
Answer: 0 n (%)

Question: What about the “Dizziness TRAE, any grade” value of the same molecule?
Answer: 12 (12.1) n (%)

Question: And the “Dizziness TRAE, grade ≥3” value?
Answer: 0 n (%)

Question: What about the “Dry mouth TEAE, any grade” value of the same molecule?
Answer: 15 (15.2) n (%)

Question: What about the “Dry mouth TEAE, grade ≥3” value of the same molecule?
Answer: 0 n (%)

Question: And the “Dry mouth TRAE, any grade” value?
Answer: 10 (10.1) n (%)

Question: What about the “Dry mouth TRAE, grade ≥3” value of the same molecule?
Answer: 0 n (%)

Question: And the “Dysphonia TEAE, any grade” value?
Answer: 26 (26.3) n (%)

Question: What about the “Dysphonia TEAE, grade ≥3” value of the same molecule?
Answer: 0 n (%)

Question: And the “Dysphonia TRAE, any grade” value?
Answer: 13 (13.1) n (%)

Question: What about the “Dysphonia TRAE, grade ≥3” value of the same molecule?
Answer: 0 n (%)

Question: And the “Dyspnea TEAE, any grade” value?
Answer: 19 (19.2) n (%)

Question: What about the “Dyspnea TEAE, grade ≥3” value of the same molecule?
Answer: 2 (2.0) n (%)

Question: And the “Edema peripheral TEAE, any grade” value?
Answer: 16 (16.2) n (%)

Question: And the “Edema peripheral TEAE, grade ≥3” value?
Answer: 0 n (%)

Question: And the “Endocrine disorders TEAE, any grade” value?
Answer: 27 (27.3) n (%)

Question: What about the “Endocrine disorders TEAE, grade ≥3” value of the same molecule?
Answer: 2 (2.0) n (%)

Question: And the “Fatigue TEAE, any grade” value?
Answer: 55 (55.6) n (%)

Question: What about the “Fatigue TEAE, grade ≥3” value of the same molecule?
Answer: 9 (9.1) n (%)

Question: And the “Fatigue TRAE, any grade” value?
Answer: 49 (49.5) n (%)

Question: What about the “Fatigue TRAE, grade ≥3” value of the same molecule?
Answer: 7 (7.1) n (%)

Question: And the “Gastrointestinal disorders TEAE, any grade” value?
Answer: 89 (89.9) n (%)

Question: What about the “Gastrointestinal disorders TEAE, grade ≥3” value of the same molecule?
Answer: 33 (33.3) n (%)

Question: And the “General disorders and administration site conditions TEAE, any grade” value?
Answer: 72 (72.7) n (%)

Question: And the “General disorders and administration site conditions TEAE, grade ≥3” value?
Answer: 12 (12.1) n (%)

Question: What about the “Headache TEAE, any grade” value of the same molecule?
Answer: 18 (18.2) n (%)

Question: And the “Headache TEAE, grade ≥3” value?
Answer: 1 (1.0) n (%)

Question: And the “Hypertension TEAE, any grade” value?
Answer: 52 (52.5) n (%)

Question: What about the “Hypertension TEAE, grade ≥3” value of the same molecule?
Answer: 29 (29.3) n (%)

Question: What about the “Hypertension TRAE, any grade” value of the same molecule?
Answer: 46 (46.5) n (%)

Question: And the “Hypertension TRAE, grade ≥3” value?
Answer: 24 (24.2) n (%)

Question: What about the “Hypokalemia TEAE, any grade” value of the same molecule?
Answer: 13 (13.1) n (%)

Question: What about the “Hypokalemia TEAE, grade ≥3” value of the same molecule?
Answer: 3 (3.0) n (%)

Question: And the “Hypomagnesemia TEAE, any grade” value?
Answer: 17 (17.2) n (%)

Question: And the “Hypomagnesemia TEAE, grade ≥3” value?
Answer: 0 n (%)

Question: What about the “Hyponatremia TEAE, any grade” value of the same molecule?
Answer: 16 (16.2) n (%)

Question: What about the “Hyponatremia TEAE, grade ≥3” value of the same molecule?
Answer: 5 (5.1) n (%)

Question: What about the “Hypophosphatemia TEAE, any grade” value of the same molecule?
Answer: 15 (15.2) n (%)
